Experimental data reported in patent publication US8012717B2, “Method for the production of cladribine” (Explora Laboratories S.A., priority 2006, dated 2011).

Format: physicochemical
Protocol: 0.42 g (equal to 2.5 mMoles) of 2-chloroadenine were suspended in 50 ml of DMF and heated while being stirred. Aliquots of DMF were added until a complete hot solubilisation was obtained. 100 ml of solvent were necessary to obtain the solubilisation of the 2-chloroadenine.
A solubilisation test was also carried out of 2-chloroadenine in 25% KOH in order to increase the solubilisation. 4.05 grams of 2-chloroadenine were resuspended in KOH being stirred. Aliquots of (25% w:v) KOH were added until complete solubilisation was obtained. Even after the addition of 100 ml of 25% KOH, the 2-chloroadenine remained practically undissolved.

## Nc1nc(Cl)nc2nc[nH]c12 [2-chloroadenine]
  solubility in 25% KOH: practically insoluble
  volume of solvent necessary to obtain the solubilisation: 100 mL
